Test results taken from US7109354B2, “Thiophene amidines, compositions thereof, and methods of treating complement-mediated diseases and conditions” (3-Dimensional Pharmaceuticals, Inc., priority 2002, dated 2006).
Where a name gives a salt, the structure may show the parent alone.

Biological target: T1, Activated human C1s (Homo sapiens, UniProt P09871)
T1 construct: purchased Calbiochem (La Jolla, Calif.)
T1 sequence (P09871 438-688 limits assumed): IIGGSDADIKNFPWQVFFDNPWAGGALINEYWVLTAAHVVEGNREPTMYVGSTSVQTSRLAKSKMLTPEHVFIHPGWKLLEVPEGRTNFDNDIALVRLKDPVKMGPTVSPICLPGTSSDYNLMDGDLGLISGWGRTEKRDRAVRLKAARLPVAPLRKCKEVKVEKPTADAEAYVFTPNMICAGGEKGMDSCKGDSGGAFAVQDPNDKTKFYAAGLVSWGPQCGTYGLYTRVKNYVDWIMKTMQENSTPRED
T1 sequence (P09871 16-437 partner limits assumed): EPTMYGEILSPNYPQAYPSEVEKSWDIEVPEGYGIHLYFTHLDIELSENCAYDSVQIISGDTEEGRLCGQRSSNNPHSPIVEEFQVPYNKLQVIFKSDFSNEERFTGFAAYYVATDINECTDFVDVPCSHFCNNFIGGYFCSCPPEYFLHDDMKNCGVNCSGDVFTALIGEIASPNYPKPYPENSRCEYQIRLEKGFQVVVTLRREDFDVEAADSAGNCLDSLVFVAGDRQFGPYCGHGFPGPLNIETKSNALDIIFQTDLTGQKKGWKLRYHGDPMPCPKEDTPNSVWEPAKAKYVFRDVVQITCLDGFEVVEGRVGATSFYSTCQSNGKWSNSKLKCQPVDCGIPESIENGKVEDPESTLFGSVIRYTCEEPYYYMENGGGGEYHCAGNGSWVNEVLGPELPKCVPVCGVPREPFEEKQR
Test: In vitro inhibition of C1s (Ki determination, C1s-catalyzed hydrolysis of Z-Gly-Arg-S-Bzl, DTNB readout)
Assay type: biochemical
Settings: substrate Z-Gly-Arg-S-Bzl 45 μM, DTNB 200 μM, C1s 2.3 nM, pH 7.5, 37° C., absorbance at 405 nm
Method: Reagents: All buffer salts were obtained from Sigma Chemical Company (St. Louis, Mo.), and were of the highest purity available. DTNB was purchased from Pierce (Rockford, Ill.). Z-Gly-Arg-S-Bzl was purchased from Enzyme Systems Products (Livermore, Calif.). Activated human C1s was purchased from Calbiochem (La Jolla, Calif.).
Test compounds are prepared as a 10 μM solution in DMSO. Dilutions are prepared in DMSO yielding 7 final concentrations encompassing a 700-fold concentration range.
Reactions were initiated by the addition of a 10 μL aliquot of the enzyme, and the absorbance increase at 405 nm is continuously recorded for 15 minutes in a Molecular Devices plate reader. Final DMSO concentration was 4.3%. […] The ratio of the velocity (rate of change in absorbance as a function of time) for a sample containing no test compound is divided by the velocity of a sample containing test compound, and is plotted as a function of test compound concentration. The data are fit to a linear regression, and the value of the slope of the line calculated. The inverse of the slope is the experimentally determined Ki value.

Structure (SMILES) | Ki
CSc1sc(C(=N)N)cc1S(=O)(=O)c1cccc(-c2ccc(N)cc2C)c1 [Example 220, 4-(4′-Amino-2′-methyl-biphenyl-3-sulfonyl)-5-methylsulfanyl-thiophene-2-carboxamidine bis-trifluoroacetate] | 6 to 23 nM
CSc1sc(C(=N)N)cc1S(=O)(=O)c1cccc(-c2c(C)cccc2CO)c1 [Example 5, 4-(6′-Hydroxymethyl-2′-methyl-biphenyl-3-sulfonyl)-5-methylsulfanyl-thiophene-2-carboxamidine] | 6 to 23 nM
CSc1sc(C(=N)N)cc1S(=O)(=O)c1cccc(-c2cc(C(F)(F)F)cc(C(F)(F)F)c2)c1 [Example 48, 4-(3′,5′-Bis-trifluoromethyl-biphenyl-3-sulfonyl)-5-methylsulfanyl-thiophene-2-carboxamidine] | 6 to 23 nM
CSc1sc(C(=N)N)cc1S(=O)(=O)c1cccc(-c2c(C)cccc2NC(=O)C(C)S(C)(=O)=O)c1 (stereo not shown) [Example 258, N-[3′-(5-Carbamimidoyl-2-methylsulfanyl-thiophene-3-sulfonyl)-6-methyl-biphenyl-2-yl]-2-methanesulfonyl-propionamide trifluoroacetate] | 6 to 23 nM
CSc1sc(C(=N)N)cc1S(=O)(=O)c1cccc(-c2cccc(N)c2)c1 [Example 62, 4-(3′-Amino-biphenyl-3-sulfonyl)-5-methylsulfanyl-thiophene-2-carboxamidine] | 6 to 23 nM
CSc1sc(C(=N)N)cc1S(=O)(=O)c1cccc(-c2c(C)cc(NC(=O)NCCCS(C)(=O)=O)cc2NC(=O)NCCCS(C)(=O)=O)c1 [Example 294, 4-{4′,6′-Bis-[3-(3-methanesulfonyl-propyl)-uredo]-2′-methyl-biphenyl-3-sulfonyl}-5-methylsulfanyl-thiophene-2-carboxamidine trifluoroacetate] | 6 to 23 nM
CSc1sc(C(=N)N)cc1S(=O)(=O)c1cccc(-c2c(C)cccc2NC(=O)CCCCCCCCCCN)c1 [Example 211, 11-Amino-undecanoic acid [3′-(5-carbamimidoyl-2-methylsulfanyl-thiophene-3-sulfonyl)-6-methyl-biphenyl-2-yl]-amide bistrifluoroacetate] | 6 to 23 nM
CSc1sc(C(=N)N)cc1S(=O)(=O)c1cccc(-c2cccc(C(=O)C(F)(F)F)c2)c1 [Example 29, 5-Methylsulfanyl-4-[3′-(2,2,2-trifluoro-acetyl)-biphenyl-3-sulfonyl]-thiophene-2-carboxamidine trifluoroacetate] | 6 to 23 nM
C=Cc1ccc(-c2cccc(S(=O)(=O)c3cc(C(=N)N)sc3SC)c2)cc1 [Example 94, 5-methylsulfanyl-4-(4′-vinyl-biphenyl-3-sulfonyl)-thiophene-2-carboxamidine] | 6 to 23 nM
COc1cc(-c2ccccc2Cl)cc(S(=O)(=O)c2cc(C(=N)N)sc2SC)c1 [Example 19, 4-(2′-Chloro-5-methoxy-biphenyl-3-sulfonyl)-5-methylsulfanyl-thiophene-2-carboxamidine trifluoroacetate] | 6 to 23 nM
CSc1sc(C(=N)N)cc1S(=O)(=O)c1cccc(-c2c(C)cc(NC(=N)N)cc2NC(=O)NCCCCS(C)(=O)=O)c1 [Example 184, 4-{4′-Guanidino-2′-[3-(4-methanesulfonyl-butyl)-ureido]-6′-methyl-biphenyl-3-sulfonyl}-5-methylsulfanyl-thiophene-2-carboxamidine trifluoroacetate] | 6 to 23 nM
CSc1sc(C(=N)N)cc1S(=O)(=O)c1cccc(-c2cccc(C(F)(F)F)c2)c1 [Example 63, 5-Methylsulfanyl-4-(3′-trifluoromethyl-biphenyl-3-sulfonyl)-thiophene-2-carboxamidine] | 6 to 23 nM
CSc1sc(C(=N)N)cc1S(=O)(=O)c1cccc(-c2c(C)cccc2NC(=O)CCCS(N)(=O)=O)c1 [Example 210, N-[3′-(5-Carbamimidoyl-2-methylsulfanyl-thiophene-3-sulfonyl)-6-methyl-biphenyl-2-yl]-4-sulfamoyl-butyramide trifluoroacetate] | 6 to 23 nM
CSc1sc(C(=N)N)cc1S(=O)(=O)c1cnc(N)c(Br)c1 [Example 119, 4-(6-Amino-5-bromo-pyridine-3-sulfonyl)-5-methylsulfanyl-thiophene-2-carboxamidine] | 6 to 23 nM

Now from value to compound:

Ki | Structure (SMILES)
6 to 23 nM | CSc1sc(C(=N)N)cc1S(=O)(=O)c1cccc(-c2ccc(C)cc2)c1 [Example 52, 4-(4′-Methyl-biphenyl-3-sulfonyl)-5-methylsulfanyl-thiophene-2-carboxamidine]
6 to 23 nM | CSc1sc(C(=N)N)cc1S(=O)(=O)c1cccc(-c2c(C)cccc2NC(=O)NCCc2c[nH]c3ccccc23)c1 [Example 207, 4-(2′-{3-[2-(1H-Indol-3-yl)-ethyl]-ureido}-6′-methyl-biphenyl-3-sulfonyl)-5-methylsulfanyl-thiophene-2-carboxamidine trifluoroacetate]
6 to 23 nM | CSc1sc(C(=N)N)cc1S(=O)(=O)c1cccc(-c2ccc(NC(=N)NCCC(C)C)cc2C)c1 [Example 282, 4-{2′-Methyl-4′-[N′-(3-methyl-butyl)-guanidino]-biphenyl-3-sulfonyl}-5-methylsulfanyl-thiophene-2-carboxamidine bistrifluoroacetate]
6 to 23 nM | CSc1sc(C(=N)N)cc1S(=O)(=O)c1ccc(C)c(-c2ccccc2)c1 [Example 115, 4-(6-Methyl-biphenyl-3-sulfonyl)-5-methylsulfanyl-thiophene-2-carboxamidine trifluoroacetate]
6 to 23 nM | CSc1sc(C(=N)N)cc1S(=O)(=O)c1cccc(-c2ccc(Cl)s2)c1 [Example 92, 4-[3-(5-Chloro-thiophen-2-yl)-benzenesulfonyl]-5-methylsulfanyl-thiophene-2-carboxamidine]
6 to 23 nM | CSc1sc(C(=N)N)cc1S(=O)(=O)c1cccc(-c2ccc(C(C)O)cc2)c1 (stereo not shown) [Example 33, 4-[4′-(1-Hydroxy-ethyl)-biphenyl-3-sulfonyl]-5-methylsulfanyl-thiophene-2-carboxamidine Trifluoroacetate]
6 to 23 nM | COc1ccc(-c2cccc(S(=O)(=O)c3cc(C(=N)N)sc3SC)c2)cc1 [Example 42, 4-(4′-Methoxy-biphenyl-3-sulfonyl)-5-methylsulfanyl-thiophene-2-carboxamidine]
6 to 23 nM | CSc1sc(C(=N)N)cc1S(=O)(=O)c1cccc(-c2ccc(C=O)cc2)c1 [Example 80, 4-(4′-Formyl-biphenyl-3-sulfonyl)-5-methylsulfanyl-thiophene-2-carboxamidine]
6 to 23 nM | CSc1sc(C(=N)N)cc1S(=O)(=O)c1cccc(-c2ccc(NC(=O)[C@@H](N)CCC(=O)O)cc2C)c1 [Example 231, 4-Amino-4-[3′-(5-carbamimidoyl-2-methylsulfanyl-thiophene-3-sulfonyl)-2-methyl-biphenyl-4-ylcarbamoyl]-butyric acid bis-trifluoroacetate]
6 to 23 nM | COc1cc(C)c(-c2cccc(S(=O)(=O)c3cc(C(=N)N)sc3SC)c2)c(NC(=O)CSCCC(=O)O)c1 [Example 252, 3-{[3′-(5-Carbamimidoyl-2-methylsulfanyl-thiophene-3-sulfonyl)-4-methoxy-6-methyl-biphenyl-2-ylcarbamoyl]-methylsulfanyl}-propionic acid trifluoroacetate]
6 to 23 nM | CSc1sc(C(=N)N)cc1S(=O)(=O)c1cccc(-c2cccc(C=O)c2C)c1 [Example 6, 4-(3′-formyl-2′-methyl-biphenyl-3-sulfonyl)-5-methylsulfanyl-thiophene-2-carboxamidine trifluoroacetate]
6 to 23 nM | CSc1sc(C(=N)N)cc1S(=O)(=O)c1cccc(-c2c(C)cc(NC(=N)N)cc2NC(=O)CCCCCCCCCCC(=O)O)c1 [Example 295, 11-[3′-(5-Carbamimidoyl-2-methylsulfanyl-thiophene-3-sulfonyl)-4-guanidino-6-methyl-biphenyl-2-ylcarbamoyl]-undecanoic acid bis-trifluoroacetate]
6 to 23 nM | CSc1sc(C(=N)N)cc1S(=O)(=O)c1ccc2ccccc2c1 [Example 37, 5-Methylsulfanyl-4-(naphthalene-2-sulfonyl)-thiophene-2-carboxamidine triflouroacetate]
6 to 23 nM | COc1cc(C)c(-c2cccc(S(=O)(=O)c3cc(C(=N)N)sc3SC)c2)c(NC(=O)CCS(C)(=O)=O)c1 [Example 256, N-[3′-(5-Carbamimidoyl-2-methylsulfanyl-thiophene-3-sulfonyl)-4-methoxy-6-methyl-biphenyl-2-yl]-3-methanesulfonyl-propionamide trifluoroacetate]
